Values quoted from earlier work, collected in patent US20110105389A1 (priority 2009, published 2011).
Read-outs that look alike come from different tables or passages of the source.

Conditions: cited from earlier work

C=C[C@H]1C[N@@]2CC[C@H]1C[C@H]2[C@H](O)c1ccnc2ccc(OC)cc12 [quinine]
known plasma protein binding value (reference controls): ~35%

CC(=O)CC(c1ccccc1)c1c(O)c2ccccc2oc1=O (centres unmarked) [warfarin]
known plasma protein binding value (plasma): ~98%
